Laboratory results published in patent US20230190760A1, “ADVANTAGEOUS THERAPIES FOR DISORDERS MEDIATED BY IKAROS OR AIOLOS” (C4 Therapeutics, Inc., priority 2020, published 2023).

Experiments:
[1] = system: proteins in DL40 tumor lysates; assay: Global proteomics of ALCL ALK+ DL40 xenograft tumors, mice treated orally with 100 μg/kg; type: in vivo, mouse
Protocol: NOD SCI mouse bearing ALCL ALK+DL40 xenografts were treated orally with 100 μg/kg of Compound 1. After 1, 4, 24 and 48 hour treatment, biological duplicates of tumoral cells were harvested, washed twice with PBS, and snap frozen in liquid nitrogen. Samples were resuspended in lysis buffer [8 M urea, 50 mM EPPS (pH 8.5), 50 mM NaCl, lx protease inhibitor cocktail] and lysed by sonication. Lysates were centrifuged at maximum speed, reduced for 1 hour at room temperature with 5 mM TCEP, and the cysteine residues were then alkylated with 15 mM iodoacetamide (room temperature, in dark, 30 minutes). Protein content was extracted twice by methanol-chloroform precipitation and subsequent ice-cold acetone washes. Protein pellets were resuspended in 8 M urea, 50 mM EPPS (pH 8.5) buffer and protein concentrations were measured by BCA assay. Samples were then diluted to 4 M urea with 50 mM EPPS (pH 8.5) and digested at 37° C. for 1 hour with endoproteinase Lys-C, at a 1/100 enzyme/protein ratio. The mixtures were then diluted to 1 M urea with 50 mM EPPS (pH 8.5) and trypsin was added at a 1/50 enzyme/protein ratio. The reaction was incubated overnight at 37° C. and stopped by acidification with formic acid 0.5% (v/v). Peptides were loaded on tC18 SepPak solid-phase extraction cartridges and lyophilized.
For peptide labeling, 100 μg of peptides per sample was prepared at […] concentration in 200 mM EPPS (pH 8.5), ACN was added to a final concentration of 30% and then 50 μg of each TMT 10 reagent. After 1 hour incubation at room temperature, reactions were quenched with 0.3% hydroxylamine for 15 minutes and mixed equally. The mixed sample was desalted using the tC18 SepPak solid-phase extraction cartridges, and lyophilized. Dried peptides were resuspended in 5% ACN, 10 mM NH4HCO3 pH 8 and fractionated in a basic pH reversed phase chromatography using a HPLC equipped with a 3.5 μm XBridge Peptide BEH C18 column. 96 fractions were collected, which were consolidated into 24, of which only 12 nonadjacent samples were analyzed. Samples were desalted, dried via vacuum centrifugation and reconstituted in 12 μL of 5% formic for LC-MS/MS analysis.
A third of each sample (4 μL) was separated by reversed phase chromatography using an EASY-Spray C18 column (2 μm particle size, 250 mm length×75 μm ID) mounted in an EASY-nLC 1200 LC pump coupled to an Orbitrap Fusion Lumos Tribid mass spectrometer. Peptides were separated using a 420 min gradient of 2 to 30% acetonitrile at a flow rate of ˜300 nL/min. Each analysis was performed using the multi-notch MS3 (SPS-MS3) scan. For the identification and relative quantification, all RAW files obtained from the mass spectrometer were transformed using SEQUEST-based software. Briefly, mass spectra were searched against the human Uniprot database (February 2016) concatenated with a database composed of all protein sequences in the reversed order as well as known contaminants. In all SEQUEST searches, precursor ion tolerance was set at 25 ppm and product ion tolerance at 0.9 Da, including methionine oxidation (+15.9949 Da) and cysteine carbamidomethylation (+57.0215 Da) as variable modifications. TMT tag (+229.1629 Da) on lysine residues and peptide N-termini were set as static modifications. Peptide-spectrum matches (PSMs) were performed using a linear discriminant analysis and adjusted to a […]. Peptide intensities were quantified by extracting the signal-to-noise ratio and proteins were further collapsed to a final protein-level FDR of 2%. Protein quantification values were exported to Excel, GraphPad Prism 7 or Perseus14 for further analysis.

[2] = Plasma PK and interconversion in rat; type: in vivo; settings: Compound 1 30 mg/kg PO
Protocol: Compound 1 was administered to a rat at a concentration of 30 mg/kg PO and monkeys at a concentration of either 60 μg/kg or 100 μg/kg PO. At the indicated timepoints shown in FIG. 25A and FIG. 25B, plasma samples were collected and the Cmax, half-life, and AUC0-inf were determined for both Compound 1 and a metabolite of Compound 1, Compound 14. The percent of Compound 14 was also determined (Table 13). PK values dose normalized to 1 mg/kg. FIG. 25A is a graph measuring the concentration of Compound 1 or Compound 14 over the course of 24 hours in monkeys administered 100 μg/kg or 60 μg/kg of Compound 1. FIG. 25B is a graph measuring the concentration of Compound 1 or Compound 14 over the course of 24 hours in a rat administered 30 mg/kg of Compound 1.

[3] = system: KARPASS422; assay: Anti-proliferative activity, 96 hours
[4] = system: IMiD-resistant NCIH929 cells; assay: Growth of IMiD-resistant NCIH929 cells (CellTiter-Glo)
Protocol: Briefly, test compound was added to 384-well plates at a top concentration of 10 μM with 14 points, half log titration in duplicates. NCIH929 cells were seeded into the 384-well plates in RPMI medium containing 10% FBS and 0.05 mM 2-mercaptoethanol at a cell density of 750 cells per well. Cells treated in the absence of the test compound were the negative control and cells treated in the absence of CellTiter-Glo® 2.0 were the positive control. Cells treated with the test compounds were incubated at 37° C. with 5% CO2 for 96 hr. CellTiter-Glo reagent was then added to the cells and luminescence was acquired on EnVision™ Multilabel Reader (PerkinElmer, Santa Clara, Calif., USA). % Viability was determined by normalizing the signal with positive and DMSO treated negative controls on the same microtiter plate.

[5] = system: TMD8; assay: Anti-proliferative activity, 96 hours; settings: Homo sapiens, TMD8, 96 h
[6] = system: KMS-26; assay: Anti-proliferative activity, 96 hours; settings: KMS-26, 96 h

O=C1CC[C@H](N2C(=O)c3cccc4c(Cc5ccc(CN6CCOCC6)cc5)ccc2c34)C(=O)N1 (single isomer, unassigned) [Compound 1]
Log2 FC vs Vehicle, IKZF1 ([1]; 4 Hour): −2.466
Log2 FC vs Vehicle, IKZF3 ([1]; 4 Hour): −2.006
Log2 FC vs Vehicle, ACTA1 ([1]; 24 Hour): −1.089
Log2 FC vs Vehicle, ACTN2 ([1]; 24 Hour): −1.304
Log2 FC vs Vehicle, AK1 ([1]; 24 Hour): −1.041
Log2 FC vs Vehicle, APOBEC2 ([1]; 24 Hour): −1.355
Log2 FC vs Vehicle, ATP2A1 ([1]; 24 Hour): −1.427
Log2 FC vs Vehicle, CASQ1 ([1]; 24 Hour): −1.333
Log2 FC vs Vehicle, CKM ([1]; 24 Hour): −1.248
Log2 FC vs Vehicle, CKMT2 ([1]; 24 Hour): −1.544
Log2 FC vs Vehicle, FHL1 ([1]; 24 Hour): −1.311
Log2 FC vs Vehicle, IKZF1 ([1]; 24 Hour): −2.515
Log2 FC vs Vehicle, IKZF3 ([1]; 24 Hour): −1.761
Log2 FC vs Vehicle, JPH2 ([1]; 24 Hour): −1.117
Log2 FC vs Vehicle, KLHL41 ([1]; 24 Hour): −1.142
Log2 FC vs Vehicle, LDB3 ([1]; 24 Hour): −1.136
Log2 FC vs Vehicle, MYBPC1 ([1]; 24 Hour): −1.366
Log2 FC vs Vehicle, MYBPC2 ([1]; 24 Hour): −1.146
Log2 FC vs Vehicle, MYH1 ([1]; 24 Hour): −1.258
Log2 FC vs Vehicle, MYH2 ([1]; 24 Hour): −1.188
Log2 FC vs Vehicle, MYH3 ([1]; 24 Hour): −1.165
Log2 FC vs Vehicle, MYH4 ([1]; 24 Hour): −1.05
Log2 FC vs Vehicle, MYH7 ([1]; 24 Hour): −2.977
Log2 FC vs Vehicle, MYH7B ([1]; 24 Hour): −1.231
Log2 FC vs Vehicle, MYH13 ([1]; 24 Hour): −1.102
Log2 FC vs Vehicle, MYL1 ([1]; 24 Hour): −1.3
Log2 FC vs Vehicle, MYL4 ([1]; 24 Hour): −1.344
Log2 FC vs Vehicle, MYLPF ([1]; 24 Hour): −1.434
Log2 FC vs Vehicle, MYOM1 ([1]; 24 Hour): −1.201
Log2 FC vs Vehicle, NEB ([1]; 24 Hour): −1.184
Log2 FC vs Vehicle, OAS1 ([1]; 24 Hour): 1.172
Log2 FC vs Vehicle, PVALB ([1]; 24 Hour): −1.105
Log2 FC vs Vehicle, PYGM ([1]; 24 Hour): −1.139
Log2 FC vs Vehicle, SPR ([1]; 24 Hour): 1.088
Log2 FC vs Vehicle, SRL ([1]; 24 Hour): −1.252
Log2 FC vs Vehicle, TNNC2 ([1]; 24 Hour): −1.035
Log2 FC vs Vehicle, TNNI2 ([1]; 24 Hour): −1.377
Log2 FC vs Vehicle, TPM1 ([1]; 24 Hour): −1.146
Log2 FC vs Vehicle, TRIM72 ([1]; 24 Hour): −1.083
Log2 FC vs Vehicle, TTN ([1]; 24 Hour): −1.117
Log2 FC vs Vehicle, ZFP91 ([1]; 24 Hour): −1.279
fold change, IKZF1 downregulated ([1]; 4 hours): 5.5
fold change, IKZF3 downregulated ([1]; 4 hours): 4.1
selectivity, proteins degraded ([1]; 4 hours post a single dose of 100 μg/kg, >7900 proteins detected): degrading only IKZF1/3
AUC(0-inf) ([2]; dose normalized to 1 mg/kg): 784 ng·h/mL
Cmax ([2]; dose normalized to 1 mg/kg): 110 ng/mL
half-life ([2]; read-out: T ½ (converted)): 2.3 h
IC50 [3]: 0.189 nM
maximal inhibition ([4]; 96 hours): 70%
IC50 ([4]; Homo sapiens, NCI-H929, 96 h): 2.3 nM
IC50 [5]: 0.078 nM
IC50 [6]: 0.789 nM
